This is an account of results in publication PMC4935745, “Synthesis and stereochemical determination of an antiparasitic pseudo-aminal type monoterpene indole alkaloid” (Journal of Natural Medicines, 2016).

What all share (assay type): cell-based
Data set [1] can be described thus: Cytotoxicity against human MRC-5 cells. The note with it: human. How it is done:
(§1) Naturally occurring and synthetic compounds were tested for antimalarial activity against Plasmodium falciparum parasites (chloroquine-resistant K1 strain and chloroquine-susceptible FCR3 strain) and for cytotoxicity (against human MCR-5 cells), in comparison with the first-line antimalarial artemisinin.

Data set [2] relates to Plasmodium falciparum (chloroquine-susceptible FCR3 strain). Briefly: In vitro antimalarial activity, FCR3 strain. The note with it: for Selectivity index (SI) M/F: MRC-5/FCR3; for IC50: Plasmodium falciparum, FCR3, chloroquine-sensitive strain, in vitro. On the procedure:
as §1

The test system of data set [3] is Plasmodium falciparum (chloroquine-resistant K1 strain). Briefly: In vitro antimalarial activity, K1 strain. Particulars: for Selectivity index (SI) M/K: MRC-5/K1; for IC50: Plasmodium falciparum, K1, chloroquine-resistant strain. On the procedure:
as §1

The subject of a further data set is MRC-5 cells. As to the kind of experiment: Cytotoxicity against human MRC-5 cells. The note with it: human MRC-5 cells. How it is done:
as §1

Setting [4] is: MRC-5 cells, human MRC-5 cells, read-out: Cytotoxicity MRC-5 IC50.

Structures are written as SMILES. ≈ marks a conversion by molar mass, not a printed value. Where two headings read alike, the source gives them in different places.

In the case of `C/C=C(/CO)[C@H](CCN=[N+]=[N-])[C@@](C)(O)c1cc2ccccc2[nH]1` [(−)-(15S,16R)-33], the values for the IC50 in data set [1] (setting [4]), in data set [2] and in data set [3] (in vitro) were 17.8 µg/mL (≈ 56.6 µM), 7.17 µg/mL (≈ 22.8 µM) and 7.58 µg/mL (≈ 24.1 µM), respectively. The “Selectivity index (SI) M/F” value in data set [2] worked out at 2.5. The “Selectivity index (SI) M/K” value in data set [3] worked out at 2.3.

As to `CC=C1CN2CCC1C(C)(O)c1[nH]c3ccccc3c1C2` (single isomer, unassigned; (+)) [Synthetic (+)-(15S,16R)-1], the “Cytotoxicity MRC-5 IC50” value with MRC-5 cells turned out to be 51.2 µg/mL. Further, in data set [2], the “Selectivity index (SI) M/F” value came to 6.1 and the IC50 amounted to 8.37 µg/mL (≈ 29.6 µM). Moreover, the “Antimalarial activity against chloroquine-resistant P. falciparum (in words)” value in data set [3] (K1 strain, in vitro) is given as “moderate/weak antimalarial activity”. For the same compound, the “Selectivity index (SI) M/K” value in data set [3] is listed as 5.7. In addition, the “Antimalarial activity K1 IC50” value in data set [3] (chloroquine-resistant strain, in vitro) came to 9.00 µg/mL.

For the compound `C/C=C1/CNCC[C@@H]1[C@@](C)(O)c1cc2ccccc2[nH]1` (racemic) [(±)-(15S,16R)-37], the IC50 is 40.8 µg/mL (≈ 151 µM) in data set [1] (setting [4]), more than 12.5 µg/mL in data set [2] and 8.98 µg/mL (≈ 33.2 µM) in data set [3] (in vitro). Moreover, the “Selectivity index (SI) M/F” value in data set [2] is reported as less than 3.3. In data set [3], the “Selectivity index (SI) M/K” value is listed as 4.5.

On to `C/C=C(/COc1ncccc1[N+](=O)[O-])[C@H](CCN=[N+]=[N-])[C@@](C)(O)c1cc2ccccc2[nH]1` [(−)-(15S,16R)-34], for which the IC50 in data set [1] (setting [4]) was more than 100 µg/mL; in data set [2] it was more than 12.5 µg/mL; in data set [3] (in vitro) it was 8.04 µg/mL (≈ 18.4 µM). The “Selectivity index (SI) M/K” value in data set [3] was more than 12.4.

Regarding `C/C=C(/COC(=O)C(C)(C)C)[C@H](CCN=[N+]=[N-])[C@@](C)(O)c1cc2ccccc2n1CO[Si](C)(C)C(C)(C)C` [(−)-(15S,16R)-32], the IC50 in data set [2] and in data set [3] (in vitro) was more than 12.5 µg/mL each time.

As for `C[C@@H]1CC[C@H]2[C@@H](C)C(=O)O[C@@H]3O[C@@]4(C)CC[C@@H]1[C@]32OO4` [Artemisinin, reference compound], the IC50 in data set [1] (Cytotoxicity MRC-5 IC50) came to 45.2 µg/mL (≈ 160 µM); in data set [2] it was 0.006 µg/mL (≈ 0.0213 µM); in data set [3] (in vitro), 0.006 µg/mL (≈ 0.0213 µM). The “Selectivity index (SI) M/F” value in data set [2] is listed as 7528. The “Selectivity index (SI) M/K” value in data set [3] stood at 7528.

Regarding `CC=C1CN2CCC1C(C)(O)c1[nH]c3ccccc3c1C2` (racemic) [Synthetic (±)-(15S*,16S*)-1, (±)-(15S*,16S*)-16-hydroxy-16,22-dihydroapparicine], the IC50 is 33.3 µg/mL (≈ 118 µM) in data set [1] (setting [4]) and more than 12.5 µg/mL in data set [3] (in vitro).

In the case of `C/C=C1/C(=O)O[C@H](C)[C@H]1CCN=[N+]=[N-]` [(−)-(15S,16R)-39], the IC50 in data set [1] (setting [4]) was 54 µg/mL (≈ 277 µM); in data set [2] it was more than 12.5 µg/mL; in data set [3] (in vitro) it was 9.38 µg/mL (≈ 48 µM). Further, in data set [2], the “Selectivity index (SI) M/F” value is recorded as less than 4.3. Further, in data set [3], the “Selectivity index (SI) M/K” value is 5.8.
